# Test results reported in patent US10231954B2, “Neurodegenerative therapies” (LYTIX BIOPHARMA AS, priority 2014, dated 2019).
# Like-named read-outs stand apart in the source and are kept apart here.
# Assays:
# Assay type in all cases: biochemical
# PHK = assay: Kinase profiling PHK
# From the text: (§1) Any value less that 25 is considered to be highly significant inhibition.
# AMPK = assay: Kinase profiling AMPK
# From the text: as §1
# MARK1 = MARK1 (Homo sapiens, UniProt Q9P0L2); assay: Kinase profiling MARK1; settings: for remaining activity at 100 µM: read-out: residual kinase activity, MARK1
# Sequence of MARK1 (Q9P0L2 whole entry, species assumed): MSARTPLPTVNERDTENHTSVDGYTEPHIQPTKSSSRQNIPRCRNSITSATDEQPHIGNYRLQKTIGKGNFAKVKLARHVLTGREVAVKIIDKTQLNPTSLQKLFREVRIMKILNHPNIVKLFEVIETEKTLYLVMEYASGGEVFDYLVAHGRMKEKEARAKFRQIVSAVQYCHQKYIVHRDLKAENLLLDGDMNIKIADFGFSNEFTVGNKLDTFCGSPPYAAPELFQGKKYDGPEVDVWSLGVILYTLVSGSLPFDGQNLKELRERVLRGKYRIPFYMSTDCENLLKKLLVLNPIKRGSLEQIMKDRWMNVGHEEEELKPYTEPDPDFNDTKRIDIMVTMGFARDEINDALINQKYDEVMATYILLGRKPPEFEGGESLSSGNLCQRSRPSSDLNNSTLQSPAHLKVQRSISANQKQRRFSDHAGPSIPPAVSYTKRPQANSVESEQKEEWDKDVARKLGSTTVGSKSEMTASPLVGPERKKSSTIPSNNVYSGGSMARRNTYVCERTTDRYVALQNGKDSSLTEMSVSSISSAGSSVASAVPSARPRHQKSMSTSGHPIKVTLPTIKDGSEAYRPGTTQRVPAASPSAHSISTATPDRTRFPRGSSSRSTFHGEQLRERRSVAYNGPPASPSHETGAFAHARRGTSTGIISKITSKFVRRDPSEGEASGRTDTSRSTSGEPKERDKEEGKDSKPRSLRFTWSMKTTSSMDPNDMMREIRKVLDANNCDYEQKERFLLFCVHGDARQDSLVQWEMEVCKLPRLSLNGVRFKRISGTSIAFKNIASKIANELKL
# From the text: as §1
# MELK = MELK (Homo sapiens, UniProt Q14680); assay: Kinase profiling MELK; settings: for remaining activity at 100 µM: read-out: residual kinase activity, MELK
# Sequence of MELK (Q14680 whole entry, species assumed): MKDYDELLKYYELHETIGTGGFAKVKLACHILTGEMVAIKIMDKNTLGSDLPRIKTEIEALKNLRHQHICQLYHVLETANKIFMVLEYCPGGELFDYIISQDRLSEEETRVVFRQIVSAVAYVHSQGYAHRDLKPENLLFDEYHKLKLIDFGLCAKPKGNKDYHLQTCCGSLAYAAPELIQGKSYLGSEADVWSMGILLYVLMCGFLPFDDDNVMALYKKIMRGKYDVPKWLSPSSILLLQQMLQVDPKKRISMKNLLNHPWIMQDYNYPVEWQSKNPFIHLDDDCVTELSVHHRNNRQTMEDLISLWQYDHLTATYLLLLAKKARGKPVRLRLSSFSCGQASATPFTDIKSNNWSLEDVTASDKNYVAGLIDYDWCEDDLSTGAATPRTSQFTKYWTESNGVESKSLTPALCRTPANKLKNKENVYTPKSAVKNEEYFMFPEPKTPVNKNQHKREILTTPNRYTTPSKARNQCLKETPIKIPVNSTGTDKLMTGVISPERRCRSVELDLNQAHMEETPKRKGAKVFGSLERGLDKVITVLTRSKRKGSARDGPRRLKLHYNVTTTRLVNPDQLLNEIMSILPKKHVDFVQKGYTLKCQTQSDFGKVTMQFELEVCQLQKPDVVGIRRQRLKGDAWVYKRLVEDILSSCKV
# From the text: as §1
# SIK2 = SIK2 (Homo sapiens, UniProt Q9H0K1); assay: Kinase profiling SIK2; settings: for remaining activity at 100 µM: read-out: residual kinase activity, SIK2
# From the text: as §1
# HIPK3 = HIPK3 (Homo sapiens, UniProt Q9H422); assay: Kinase profiling HIPK3; settings: for remaining activity at 100 µM: read-out: residual kinase activity, HIPK3
# Sequence of HIPK3 (Q9H422 whole entry, species assumed): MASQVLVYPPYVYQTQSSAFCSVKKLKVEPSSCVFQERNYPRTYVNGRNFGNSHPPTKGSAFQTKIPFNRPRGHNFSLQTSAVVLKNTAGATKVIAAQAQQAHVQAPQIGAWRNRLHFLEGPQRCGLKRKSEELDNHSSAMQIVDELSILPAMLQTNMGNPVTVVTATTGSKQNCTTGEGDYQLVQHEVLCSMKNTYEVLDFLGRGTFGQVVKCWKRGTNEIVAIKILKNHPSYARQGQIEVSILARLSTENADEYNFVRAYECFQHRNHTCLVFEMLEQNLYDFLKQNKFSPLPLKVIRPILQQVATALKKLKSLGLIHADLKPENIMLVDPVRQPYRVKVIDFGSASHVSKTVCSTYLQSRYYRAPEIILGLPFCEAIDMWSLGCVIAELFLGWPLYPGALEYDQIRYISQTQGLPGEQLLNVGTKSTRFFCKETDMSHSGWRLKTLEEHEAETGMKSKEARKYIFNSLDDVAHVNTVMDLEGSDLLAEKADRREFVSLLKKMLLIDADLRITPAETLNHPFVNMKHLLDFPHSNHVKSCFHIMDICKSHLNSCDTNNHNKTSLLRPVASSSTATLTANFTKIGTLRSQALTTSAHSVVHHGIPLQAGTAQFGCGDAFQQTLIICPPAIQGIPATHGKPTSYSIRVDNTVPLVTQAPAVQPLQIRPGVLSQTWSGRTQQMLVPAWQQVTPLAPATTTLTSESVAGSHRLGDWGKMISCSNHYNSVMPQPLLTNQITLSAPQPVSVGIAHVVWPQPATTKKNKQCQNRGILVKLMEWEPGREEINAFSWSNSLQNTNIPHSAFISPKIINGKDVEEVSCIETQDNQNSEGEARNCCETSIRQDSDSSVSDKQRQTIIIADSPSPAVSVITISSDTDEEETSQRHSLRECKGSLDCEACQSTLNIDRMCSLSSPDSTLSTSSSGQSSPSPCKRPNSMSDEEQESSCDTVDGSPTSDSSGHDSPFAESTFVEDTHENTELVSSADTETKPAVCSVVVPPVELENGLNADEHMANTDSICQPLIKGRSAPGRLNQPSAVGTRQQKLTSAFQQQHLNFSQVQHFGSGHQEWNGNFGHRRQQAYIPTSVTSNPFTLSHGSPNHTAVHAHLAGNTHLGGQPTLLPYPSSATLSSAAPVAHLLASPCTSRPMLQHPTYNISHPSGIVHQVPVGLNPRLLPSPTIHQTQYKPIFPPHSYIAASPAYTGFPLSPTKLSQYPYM
# From the text: as §1
# MINK1 = MINK1 (Homo sapiens, UniProt Q8N4C8); assay: Kinase profiling MINK1; settings: for remaining activity at 100 µM: read-out: residual kinase activity, MINK1
# Sequence of MINK1 (Q8N4C8 whole entry, species assumed): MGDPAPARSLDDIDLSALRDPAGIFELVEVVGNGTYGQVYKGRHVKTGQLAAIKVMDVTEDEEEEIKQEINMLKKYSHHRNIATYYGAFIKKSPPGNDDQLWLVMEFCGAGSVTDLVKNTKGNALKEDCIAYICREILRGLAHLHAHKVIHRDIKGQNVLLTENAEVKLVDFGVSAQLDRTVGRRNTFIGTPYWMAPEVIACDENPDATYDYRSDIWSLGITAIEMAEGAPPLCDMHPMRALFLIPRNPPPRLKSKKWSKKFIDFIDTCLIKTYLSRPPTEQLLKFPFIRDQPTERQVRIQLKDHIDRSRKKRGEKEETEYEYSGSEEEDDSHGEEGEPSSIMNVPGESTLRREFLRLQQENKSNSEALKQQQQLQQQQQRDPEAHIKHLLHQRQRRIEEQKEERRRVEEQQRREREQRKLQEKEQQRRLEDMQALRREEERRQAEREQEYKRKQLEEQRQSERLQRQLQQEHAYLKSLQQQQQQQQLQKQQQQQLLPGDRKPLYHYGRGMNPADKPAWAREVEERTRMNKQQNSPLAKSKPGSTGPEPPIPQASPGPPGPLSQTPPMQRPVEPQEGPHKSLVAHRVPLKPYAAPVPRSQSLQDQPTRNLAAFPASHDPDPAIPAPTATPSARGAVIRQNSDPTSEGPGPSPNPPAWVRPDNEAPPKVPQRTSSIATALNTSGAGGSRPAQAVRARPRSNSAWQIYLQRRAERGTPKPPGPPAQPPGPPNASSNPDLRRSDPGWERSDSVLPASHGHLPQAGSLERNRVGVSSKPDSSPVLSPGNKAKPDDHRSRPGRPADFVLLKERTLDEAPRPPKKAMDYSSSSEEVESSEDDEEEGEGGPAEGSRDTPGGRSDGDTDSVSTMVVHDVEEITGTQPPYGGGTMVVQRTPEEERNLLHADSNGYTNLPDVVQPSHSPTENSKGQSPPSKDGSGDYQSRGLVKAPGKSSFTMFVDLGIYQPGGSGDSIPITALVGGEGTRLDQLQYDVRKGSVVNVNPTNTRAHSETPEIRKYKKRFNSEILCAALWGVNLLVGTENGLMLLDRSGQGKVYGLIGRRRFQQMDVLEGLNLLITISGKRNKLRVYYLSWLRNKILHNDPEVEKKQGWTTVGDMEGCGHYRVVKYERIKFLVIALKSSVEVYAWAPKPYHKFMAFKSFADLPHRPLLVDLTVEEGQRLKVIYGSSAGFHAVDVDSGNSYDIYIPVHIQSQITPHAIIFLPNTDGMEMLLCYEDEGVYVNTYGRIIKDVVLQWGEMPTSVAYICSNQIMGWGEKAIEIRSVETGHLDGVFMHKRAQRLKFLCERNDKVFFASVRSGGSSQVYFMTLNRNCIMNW
# From the text: as §1
# YES1 = YES1 (Homo sapiens, UniProt P07947); assay: Kinase profiling YES1; settings: for remaining activity at 100 µM: read-out: residual kinase activity, YES1
# Sequence of YES1 (P07947 whole entry, species assumed): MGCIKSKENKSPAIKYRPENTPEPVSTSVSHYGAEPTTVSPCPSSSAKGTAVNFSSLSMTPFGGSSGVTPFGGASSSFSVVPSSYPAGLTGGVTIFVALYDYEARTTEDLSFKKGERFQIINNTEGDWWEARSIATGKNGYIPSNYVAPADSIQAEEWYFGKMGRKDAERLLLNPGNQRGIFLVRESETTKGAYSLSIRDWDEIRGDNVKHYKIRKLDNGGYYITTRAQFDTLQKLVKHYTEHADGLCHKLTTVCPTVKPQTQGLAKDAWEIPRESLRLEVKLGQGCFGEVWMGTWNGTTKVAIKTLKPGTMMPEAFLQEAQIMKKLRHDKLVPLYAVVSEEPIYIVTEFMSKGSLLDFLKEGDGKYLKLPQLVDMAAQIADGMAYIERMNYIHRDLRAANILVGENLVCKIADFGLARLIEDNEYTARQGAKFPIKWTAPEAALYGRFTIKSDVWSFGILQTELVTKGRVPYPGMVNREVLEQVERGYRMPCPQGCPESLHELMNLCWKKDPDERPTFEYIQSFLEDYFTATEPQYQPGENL
# From the text: as §1
# MAP4K3 = target: T1, MAP4K3 (Homo sapiens, UniProt Q8IVH8); assay: Kinase profiling MAP4K3; settings: for remaining activity at 100 µM: read-out: residual kinase activity, MAP4K3
# T1 sequence (Q8IVH8 1-894): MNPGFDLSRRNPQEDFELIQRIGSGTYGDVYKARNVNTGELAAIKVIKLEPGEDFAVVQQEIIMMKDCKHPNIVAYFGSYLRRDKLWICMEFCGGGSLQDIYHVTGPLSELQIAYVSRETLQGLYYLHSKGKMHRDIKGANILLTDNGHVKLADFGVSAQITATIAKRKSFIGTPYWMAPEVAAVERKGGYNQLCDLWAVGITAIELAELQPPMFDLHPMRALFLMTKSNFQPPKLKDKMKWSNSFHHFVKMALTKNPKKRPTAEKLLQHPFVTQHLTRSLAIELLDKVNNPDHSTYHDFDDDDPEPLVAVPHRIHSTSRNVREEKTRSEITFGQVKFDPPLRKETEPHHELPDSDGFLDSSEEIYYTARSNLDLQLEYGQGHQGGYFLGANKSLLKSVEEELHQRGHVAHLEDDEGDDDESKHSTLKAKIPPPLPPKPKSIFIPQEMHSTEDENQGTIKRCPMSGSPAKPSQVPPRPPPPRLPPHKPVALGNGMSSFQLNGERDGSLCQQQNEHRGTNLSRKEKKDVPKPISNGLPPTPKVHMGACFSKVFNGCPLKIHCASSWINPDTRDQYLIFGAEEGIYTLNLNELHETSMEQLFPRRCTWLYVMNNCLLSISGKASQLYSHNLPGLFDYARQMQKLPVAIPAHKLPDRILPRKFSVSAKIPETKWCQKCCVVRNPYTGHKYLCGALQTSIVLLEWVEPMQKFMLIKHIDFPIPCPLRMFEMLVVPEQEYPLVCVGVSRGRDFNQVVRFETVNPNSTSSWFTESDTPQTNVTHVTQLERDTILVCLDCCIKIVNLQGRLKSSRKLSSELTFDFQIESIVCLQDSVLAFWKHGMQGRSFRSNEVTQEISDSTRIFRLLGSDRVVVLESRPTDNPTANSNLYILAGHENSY
# From the text: as §1
# TGFBR1 = target: T2, TGFBR1 (Homo sapiens, UniProt P36897); assay: Kinase profiling TGFBR1; settings: for remaining activity at 100 µM: read-out: residual kinase activity, TGFBR1
# T2 sequence (P36897 34-503): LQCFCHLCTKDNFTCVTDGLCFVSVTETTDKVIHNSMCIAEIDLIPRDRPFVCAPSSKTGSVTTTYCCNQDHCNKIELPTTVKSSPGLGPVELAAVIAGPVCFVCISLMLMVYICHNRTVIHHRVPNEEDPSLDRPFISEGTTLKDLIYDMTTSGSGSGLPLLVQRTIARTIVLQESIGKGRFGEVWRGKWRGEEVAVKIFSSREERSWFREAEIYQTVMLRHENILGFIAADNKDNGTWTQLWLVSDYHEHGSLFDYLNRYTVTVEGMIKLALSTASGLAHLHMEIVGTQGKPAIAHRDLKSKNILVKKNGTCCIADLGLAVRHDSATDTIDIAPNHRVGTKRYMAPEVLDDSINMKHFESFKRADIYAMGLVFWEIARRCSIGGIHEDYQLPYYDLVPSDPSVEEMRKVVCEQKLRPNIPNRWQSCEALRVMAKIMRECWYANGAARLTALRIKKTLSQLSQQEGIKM
# From the text: as §1
# [1] = 100 micromolar inhibitor concentration, 100 is no change
# [2] = 100 micromolar inhibitor, 100 = no change
Compound,"residual kinase activity, PHK (PHK; [1])","residual kinase activity, AMPK (AMPK; [1])",remaining activity at 100 µM (MARK1; [1]) [%],remaining activity at 100 µM (MELK; [1]) [%],remaining activity at 100 µM (SIK2; [1]) [%],remaining activity at 100 µM (HIPK3; [1]) [%],remaining activity at 100 µM (MINK1; [1]) [%],remaining activity at 100 µM (YES1; [1]) [%],"residual kinase activity, MARK1 (MARK1; [1])","residual kinase activity, MELK (MELK; [1])","residual kinase activity, SIK2 (SIK2; [1])","residual kinase activity, HIPK3 (HIPK3; [1])","residual kinase activity, MAP4K3 (MAP4K3; [1])","residual kinase activity, MINK1 (MINK1; [1])","residual kinase activity, TGFBR1 (TGFBR1; [1])","residual kinase activity, YES1 (YES1; [1])",further results
"CC(=O)Nc1nc2cc(O)ccc2s1 [Compound 01-66, N-(5-hydroxybenzo[d]thiazol-2-yl)acetamide]",49,61,,,,,,,,,,,,,,,remaining activity at 100 µM (MARK1): 56%; remaining activity at 100 µM (MELK): 17%; remaining activity at 100 µM (SIK2): 56%; remaining activity at 100 µM (HIPK3): 37%; remaining activity at 100 µM (MINK1): 48%; remaining activity at 100 µM (YES1): 72%
CC(=O)Nc1nc2ccc(O)cc2s1 [Compound 01-71],47,37,33,24,32,27,28,59,,,,,,,,,
CC(=O)Nc1nc2ccc(C(F)(F)F)cc2s1 [Compound 01-90],52,90,90,49,72,69,35,57,,,,,,,,,remaining activity at 100 µM (MAP4K3; [1]): 65%
CC(=O)Nc1nc2ccc(C#N)cc2s1 [Compound 01-94],63,73,60,34,70,38,40,86,,,,,,,,,remaining activity at 100 µM (MAP4K3; [1]): 52%
"CC(=O)Nc1cccc(NC(=O)c2nc3ccc(O)cc3s2)c1 [Compound 03-07, N-(3-acetamidophenyl)-6-hydroxybenzo[d]thiazole-2-carboxamide]",,,,,,,,,,,,,,,,,"residual kinase activity, PHK (PHK; [2]): 55; residual kinase activity, AMPK (AMPK; [2]): 76; remaining activity at 100 µM (MARK1; [2]): 106%; remaining activity at 100 µM (MELK; [2]): 12%; remaining activity at 100 µM (SIK2; [2]): 28%; remaining activity at 100 µM (HIPK3; [2]): 81%; remaining activity at 100 µM (MAP4K3; [2]): 63%; remaining activity at 100 µM (MINK1; [2]): 18%; remaining activity at 100 µM (TGFBR1; [2]): 113%; remaining activity at 100 µM (YES1; [2]): 49%"
O=C(Nc1nc2cc(O)ccc2s1)c1ccncc1 [Compound 03-11],63,84,,,,,,,90,48,79,106,73,63,107,82,
O=C(Nc1nc2ccc(O)cc2s1)c1ccccn1 [Compound 03-12],37,86,,,,,,,89,31,77,84,54,48,117,73,
O=C(Nc1nc2cc(O)ccc2s1)c1ccccn1 [Compound 03-13],28,80,,,,,,,99,22,96,82,67,31,109,60,
COc1ccc2sc(NC(C)=O)nc2c1 [Compound 03-21],111,100,98,44,89,86,61,93,,,,,,,,,remaining activity at 100 µM (MAP4K3; [1]): 75%; remaining activity at 100 µM (TGFBR1; [1]): 124%
CC(=O)Nc1nc2ccccc2s1 [Compound 03-32],94,107,,,,,,,77,83,81,78,90,92,92,93,
O=C(Nc1nc2cc(O)ccc2s1)c1cccnc1 [Compound 03-33],74,91,,,,,,,103,29,69,102,69,51,88,91,
O=C(Nc1nc2ccc(O)cc2s1)c1ccccc1 [Compound 03-60],33,30,,,,,,,96,18,26,38,56,7,93,65,
CC(=O)Nc1nc2cc(C(F)(F)F)ccc2s1 [Compound 03-73],91,75,88,91,91,106,77,108,,,,,,,,,remaining activity at 100 µM (MAP4K3; [1]): 63%; remaining activity at 100 µM (TGFBR1; [1]): 118%
CC(=O)Nc1nc2cc(C)ccc2s1 [Compound 03-76],87,77,,,,,,,94,58,71,79,80,63,98,104,
